Experimental data taken from patent US20110065787A1, “THERAPEUTIC AGENT FOR MALE STERILITY” (SBI ALApromo., Ltd., priority 2008, published 2011).
Entries after “also recorded” stand apart in the source; their conditions may differ.

What was measured:
[1] = test system: healthy volunteers, married men; test: Subjective estimation of erectile effect in healthy volunteers (Example 3); type: in vivo, human
Description: 1 g of ALA hydrochloride was dissolved into 50 mL of 5% glucose aqueous solution (test solution), and administered to 7 healthy volunteers, married men from 28 to 44 years old. They ingested orally the test solution (13.9 to 22.2 mg/kg) without taking breakfast.

male rats (Slc:Wistar) [2] = test: Crossing test: conception rate of copulated animals (Example 2); type: in vivo, rat
Description: Forty 10 week-old male rats (Slc:Wistar) and forty 9 week-old female rats were obtained, quarantined for 7 days, and were habituated and bred for 13 days. δ-amino levulinic acid (herein after referred to as ALA) phosphate was weighed, dissolved into injection solvent to prepare a 50 mg/mL solution.
After day 15 from administration of Example 1, crossing period was set as 14 days, and 1 female was housed per 1 male in the control group and in the 500 mg/kg-group.

male rats (Slc:Wistar) [3] = test: Organ weights at autopsy of male rats after repeated oral administration (Example 1); conditions: 500 mg/kg oral once a day, compared to the control group, FIG. 1
[4] = 1 g oral in 5% glucose solution (13.9 to 22.2 mg/kg), one line per volunteer 1-7, hydrochloride

Structure (SMILES)	Note (sexual intercourse, pregnancy) [1, 4]	Result (erectile, individual subjective estimation) [1, 4]	volunteers in whom erectile was observed on that night ([1]; 1 g oral, 7 healthy volunteers)	volunteers who had sexual intercourse, and pregnancy was confirmed ([1]; 1 g oral, among the volunteers with erectile)	conception succeeded (number of rats) (male rats (Slc:Wistar) [2]; 500 mg/kg-group, control 16 out of 20)	conception rate of copulated animals (male rats (Slc:Wistar) [2]; male rats 500 mg/kg oral once a day, crossing period 14 days after day 15, control group 80.0%) [%]	net weight of seminal vesicle (male rats (Slc:Wistar) [3])	weight volume ratio to the body weight of seminal vesicle (male rats (Slc:Wistar) [3])
Cl.NCC(=O)CCC(=O)O [ALA hydrochloride, δ-amino levulinic acid hydrochloride]	pregnant; also recorded: No sexual intercourse; also recorded: No sexual intercourse,	Δ (when no change is observed by (Δ))	5 out of 7	2				
NCC(=O)CCC(=O)O.O=P(O)(O)O [ALA phosphate, δ-amino levulinic acid phosphate]					17 out of 19	94.4	significant high level	significant high level
